The values below come from patent publication US9115117B2, “Substituted piperidine compounds and their use as orexin receptor modulators” (JANSSEN PHARMACEUTICA NV, priority 2013, dated 2015).

The target of one experiment is rat orexin 1 receptor (Rattus norvegicus, UniProt P56718). As to the kind of experiment: Rat orexin 1 receptor radioligand binding. As to conditions: HEK293 cells stably expressing rat orexin 1 receptor; apparent Ki; read-out: rOX1 Ki. In short, it runs like this: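 Homogenized cell suspensions competed against 4 nM final of a tritiated oxadiazolyl-pyrrolidinyl thiazole methanone radioligand (35.3 Ci/mmol) in PBS, with DMSO ≤0.1%. Nonspecific binding defined with 10 μM almorexant; after washing and drying, bound radioactivity counted by scintillation.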

A further experiment deals with human orexin 1 receptor (Homo sapiens, UniProt O43613). As to the kind of experiment: Human orexin 1 receptor radioligand binding. As to conditions: CHO cells stably expressing human orexin 1 receptor; apparent Ki; read-out: hOX1 Ki. The method, then:
The in vitro affinity of the compounds of the invention for the rat/human orexin 1 and human orexin 2 receptors was determined by competitive radioligand binding using [^3H](1-(5-(2-fluoro-phenyl)-2-methyl-thiazol-4-yl)-1-((S)-2-(5-phenyl-(1,3,4)oxadiazol-2-ylmethyl)-pyrrolidin-1-yl)-methanone)(Langmead et al., 2004) and [^3H]EMPA (n-ethyl-2[96-methoxy-pyridin-3-yl)-(toluene-2-sulfonyl)-amino]-N-pyridin-3-ylmethyl acetamide), respectively (Langmead et al., 2004, British Journal of Pharmacology 141:340-346; Malherbe et al., 2004, British Journal of Pharmacology 156:1326-41).
Human Embryonic Kidney 293 cells (HEK293) stably expressing rat orexin 1 receptor (Genebank accession number NM_001525) or Chinese ovary cells (CHO) stably expressing human orexin 1 receptor (Genebank accession number NM_001526) were grown to confluency in DMEM (Hyclone, cat #SH30022), 10% FBS, 1× Pen/Strep, 1× sodium pyruvate, 10 mM HEPES, 600 µg/mL G418 and DMEM/F12 (Gibco, Cat #11039), 10% FBS, 1× Pen/Strep, 600 µg/mL G418 media, respectively on 150 cm^2 tissue culture plates, washed with 5 mM EDTA in PBS (HyClone Dulbecco's Phoshpate Buffered Saline 1× with Calcium and Magnesium, Cat #SH30264.01, hereafter referred to simply as PBS) and scraped into 50 ml tubes. After centrifugation (2K×G, 5 min at 4° C.), the supernatant was aspirated and the pellets frozen and stored at −80° C. Cells were resuspended in PBS in the presence of 1 tablet of protease inhibitor cocktail (Roche, Cat. #11836145001) per 50 mL. Each cell pellet from a 15 cm plate was resuspended in 10 mL, stored on ice, and homogenized for 45 sec prior to addition to the reactions. Competition binding experiments in 96 well polypropylene plates were performed using [^3H]-(1-(5-(2-fluoro-phenyl)-2-methyl-thiazol-4-yl)-1-((S)-2-(5-phenyl-(1,3,4)oxadiazol-2-ylmethyl)-pyrrolidin-1-yl)-methanone) (Moraveck Corporation, specific activity=35.3 Ci/mmol), diluted to a 10 nM concentration in PBS (4 nM final). […] The final concentration of DMSO in the reactions is equal to or less than 0.1%. Total and nonspecific binding was determined in the absence and presence of 10 μM almorexant. The total volume of each reaction is 200 μL (20 μL of diluted compounds, 80 μL of [3H]-(1-(5-(2-fluoro-phenyl)-2-methyl-thiazol-4-yl)-1-((S)-2-(5-phenyl-(1,3,4)oxadiazol-2-ylmethyl)-pyrrolidin-1-yl)-methanone) diluted in PBS and 100 μL of the cell suspension). Reactions were run for 60 min at room temperature and terminated by filtration through GF/C filter plates (PerkinElmer, Cat. #6005174) presoaked in 0.3% polyethylenimine using the cell harvester (PerkinElmer Filtermate). The plates were washed 3 times by aspirating 30 ml PBS through the plates. Plates were dried in 55° C. oven for 60 min, scintillation fluid was added, and the radioactivity was counted on a Topcount (Packard).

The target of another experiment is human orexin 2 receptor (Homo sapiens (Human), UniProt O43614). As to the kind of experiment: Human orexin 2 receptor radioligand binding ([3H]-EMPA). In outline: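 Competition binding with 2 nM final [3H]-EMPA in PBS against homogenized whole-cell suspension; DMSO ≤0.1%. Nonspecific binding defined with […] almorexant. Plates washed with PBS, dried, and bound radioactivity counted by scintillation.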
Chain of human orexin 2 receptor (O43614 whole entry): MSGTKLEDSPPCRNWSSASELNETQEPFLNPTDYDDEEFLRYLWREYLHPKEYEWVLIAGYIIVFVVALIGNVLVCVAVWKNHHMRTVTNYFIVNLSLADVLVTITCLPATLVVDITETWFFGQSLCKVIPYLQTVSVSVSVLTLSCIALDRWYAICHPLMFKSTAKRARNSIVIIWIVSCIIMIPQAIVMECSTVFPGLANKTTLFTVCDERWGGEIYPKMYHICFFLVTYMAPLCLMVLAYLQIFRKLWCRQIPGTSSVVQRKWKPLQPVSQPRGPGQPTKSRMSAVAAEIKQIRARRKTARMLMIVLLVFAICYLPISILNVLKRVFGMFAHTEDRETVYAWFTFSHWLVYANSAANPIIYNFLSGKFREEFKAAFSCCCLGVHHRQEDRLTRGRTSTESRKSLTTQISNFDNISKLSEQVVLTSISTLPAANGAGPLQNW

Setting [1] is: HEK293 stably expressing human orexin 2 receptor, [3H]-EMPA, apparent Ki, read-out: hOX2 Ki.

The structures appear in SMILES notation. Where two headings read alike, the source gives them in different places. Where only a bound is given, the exact number is not on record here.

For the compound `Cc1cnc(C(=O)N2CCC[C@@H](Nc3nc4ccccc4o3)[C@@H]2C)c(-n2nccn2)c1` [Example 73, ((2S,3R)-3-(benzo[d]oxazol-2-ylamino)-2-methylpiperidin-1-yl)(5-methyl-3-(2H-1,2,3-triazol-2-yl)pyridin-2-yl)methanone], the Ki on rat orexin 1 receptor came out at 7 nM; on human orexin 1 receptor, 21 nM; on human orexin 2 receptor (setting [1]), 1890 nM.
In the case of `Cc1ccc(C(=O)N2CCC[C@@H](Nc3cnc(C(F)(F)F)cn3)[C@@H]2C)c(-n2nccn2)n1` [Example 74, (6-methyl-2-(2H-1,2,3-triazol-2-yl)pyridin-3-yl)((2S,3R)-2-methyl-3-((5-(trifluoromethyl)pyrazin-2-yl)amino)piperidin-1-yl)methanone], the Ki at rat orexin 1 receptor is 40 nM; at human orexin 1 receptor, 52 nM; on human orexin 2 receptor it was above 10000 nM.
In the case of `Cc1ccc(C(=O)N2CCC[C@@H](Nc3nc4ccccc4o3)[C@@H]2C)c(-n2nccn2)n1` [Example 75, ((2S,3R)-3-(benzo[d]oxazol-2-ylamino)-2-methylpiperidin-1-yl)(6-methyl-2-(2H-1,2,3-triazol-2-yl)pyridin-3-yl)methanone], the Ki on rat orexin 1 receptor amounted to 23 nM; at human orexin 1 receptor it was 40 nM; at human orexin 2 receptor (setting [1]), 9500 nM.
In the case of `Cc1ccc(C(=O)N2CCC[C@@H](Nc3nc4ccccc4o3)[C@@H]2C)c(-n2ccnn2)n1` [Example 76, ((2S,3R)-3-(benzo[d]oxazol-2-ylamino)-2-methylpiperidin-1-yl)(6-methyl-2-(1H-1,2,3-triazol-1-yl)pyridin-3-yl)methanone], the values for the Ki at rat orexin 1 receptor, on human orexin 1 receptor and on human orexin 2 receptor (setting [1]) were 54 nM, 62 nM and 1300 nM, respectively.
With `Cc1cnc(C(=O)N2CCC[C@@H](Nc3ccc(Cl)cn3)[C@@H]2C)c(-c2ncco2)c1` [Example 77, ((2S,3R)-3-((5-chloropyridin-2-yl)amino)-2-methylpiperidin-1-yl)(5-methyl-3-(oxazol-2-yl)pyridin-2-yl)methanone], the values for the Ki on rat orexin 1 receptor, at human orexin 1 receptor and on human orexin 2 receptor (setting [1]) were 36 nM, 55 nM and 4020 nM, respectively.
In the same order, the values of `Cc1ccc(-c2ncccn2)c(C(=O)N2CCC[C@@H](Nc3ncc(C(F)(F)F)cn3)[C@@H]2C)n1` [Example 78, ((2S,3R)-2-methyl-3-((5-(trifluoromethyl)pyrimidin-2-yl)amino)piperidin-1-yl)(6-methyl-3-(pyrimidin-2-yl)pyridin-2-yl)methanone] are 30 nM, 57 nM and 436 nM.
With `Cc1ccc(C(=O)N2CCC[C@@H](Nc3cnc(C(F)(F)F)cn3)[C@@H]2C)c(-n2nccn2)c1` [Example 79, (4-methyl-2-(2H-1,2,3-triazol-2-yl)phenyl)((2S,3R)-2-methyl-3-((5-(trifluoromethyl)pyrazin-2-yl)amino)piperidin-1-yl)methanone], the Ki at rat orexin 1 receptor was determined as 8 nM; on human orexin 1 receptor, 7 nM; at human orexin 2 receptor (setting [1]), 1300 nM.
For the compound `Cc1cnc(C(=O)N2CCC[C@@H](Nc3ccc(Br)cn3)[C@@H]2C)c(-c2ncco2)c1` [Example 80, ((2S,3R)-3-((5-bromopyridin-2-yl)amino)-2-methylpiperidin-1-yl)(5-methyl-3-(oxazol-2-yl)pyridin-2-yl)methanone], the Ki stood at 29 nM at rat orexin 1 receptor, 24 nM on human orexin 1 receptor and 4900 nM at human orexin 2 receptor (setting [1]).
For `Cc1ccc(-c2ncccn2)c(C(=O)N2CCC[C@@H](Nc3nc4ccccc4o3)[C@@H]2C)n1` [Example 81, ((2S,3R)-3-(benzo[d]oxazol-2-ylamino)-2-methylpiperidin-1-yl)(6-methyl-3-(pyrimidin-2-yl)pyridin-2-yl)methanone], the figures for the Ki at rat orexin 1 receptor, on human orexin 1 receptor and on human orexin 2 receptor (setting [1]) were 14 nM, 23 nM and 100 nM, respectively.
In the case of `COc1ccc(C(=O)N2CCC[C@@H](Nc3cnc(C(F)(F)F)cn3)[C@@H]2C)c(-n2nccn2)c1` [Example 82, (4-methoxy-2-(2H-1,2,3-triazol-2-yl)phenyl)((2S,3R)-2-methyl-3-((5-(trifluoromethyl)pyrazin-2-yl)amino)piperidin-1-yl)methanone], the Ki at rat orexin 1 receptor worked out at 53 nM; on human orexin 1 receptor, 58 nM; at human orexin 2 receptor (setting [1]), 6400 nM.
With `Cc1cnc(C(=O)N2CCC[C@@H](Nc3cnc(C(F)(F)F)cn3)[C@@H]2C)c(-c2ncco2)c1` [Example 83, ((2S,3R)-2-methyl-3-((5-(trifluoromethyl)pyrazin-2-yl)amino)piperidin-1-yl)(5-methyl-3-(oxazol-2-yl)pyridin-2-yl)methanone], the Ki stood at 57 nM on rat orexin 1 receptor, 53 nM on human orexin 1 receptor and 7000 nM at human orexin 2 receptor (setting [1]).
In the same order, the values of `Cc1ccc(-c2ncccn2)c(C(=O)N2CCC[C@@H](Nc3cnc(C(F)(F)F)cn3)[C@@H]2C)n1` [Example 84, ((2S,3R)-2-methyl-3-((5-(trifluoromethyl)pyrazin-2-yl)amino)piperidin-1-yl)(6-methyl-3-(pyrimidin-2-yl)pyridin-2-yl)methanone] are 23 nM, 28 nM and 173 nM.
As to `C[C@H]1[C@H](Nc2cnc(C(F)(F)F)cn2)CCCN1C(=O)c1ccccc1-n1nccn1` [Example 85, (2-(2H-1,2,3-triazol-2-yl)phenyl)((2S,3R)-2-methyl-3-((5-(trifluoromethyl)pyrazin-2-yl)amino)piperidin-1-yl)methanone], the Ki on rat orexin 1 receptor is 8 nM; at human orexin 1 receptor, 10 nM; on human orexin 2 receptor (setting [1]), 210 nM.
`Cc1cnc(C(=O)N2CCC[C@@H](Nc3cnc(Cl)cn3)[C@@H]2C)c(-c2ncco2)c1` [Example 86, ((2S,3R)-3-((5-chloropyrazin-2-yl)amino)-2-methylpiperidin-1-yl)(5-methyl-3-(oxazol-2-yl)pyridin-2-yl)methanone]: the Ki at rat orexin 1 receptor is 213 nM; at human orexin 1 receptor, 249 nM; on human orexin 2 receptor (setting [1]) it was above 10000 nM.
On to `Cc1cnc(C(=O)N2CCC[C@@H](Nc3nc4ccccc4o3)[C@@H]2C)c(-c2ncco2)c1` [Example 88, ((2S,3R)-3-(benzo[d]oxazol-2-ylamino)-2-methylpiperidin-1-yl)(5-methyl-3-(oxazol-2-yl)pyridin-2-yl)methanone], for which the Ki on rat orexin 1 receptor turned out to be 13 nM; at human orexin 1 receptor it was 25 nM; at human orexin 2 receptor (setting [1]), 3300 nM.
Turning to `COc1ccc(-n2nccn2)c(C(=O)N2CCC[C@@H](Nc3ncc(C(F)(F)F)cn3)[C@@H]2C)c1` [Example 89, (5-methoxy-2-(2H-1,2,3-triazol-2-yl)phenyl)((2S,3R)-2-methyl-3-((5-(trifluoromethyl)pyrimidin-2-yl)amino)piperidin-1-yl)methanone], the Ki stood at 14 nM on rat orexin 1 receptor, 10 nM at human orexin 1 receptor and 371 nM on human orexin 2 receptor (setting [1]).
In the same order, the values of `C[C@H]1[C@H](Nc2cnc(C(F)(F)F)cn2)CCCN1C(=O)c1cc(F)ccc1-n1nccn1` [Example 90, (5-fluoro-2-(2H-1,2,3-triazol-2-yl)phenyl)((2S,3R)-2-methyl-3-((5-(trifluoromethyl)pyrazin-2-yl)amino)piperidin-1-yl)methanone] are 20 nM, 19 nM and 486 nM.
In the case of `Cc1ccc(C(=O)N2CCC[C@@H](Nc3ncc(Cl)cn3)[C@@H]2C)c(-n2nccn2)c1` [Example 91, ((2S,3R)-3-((5-chloropyrimidin-2-yl)amino)-2-methylpiperidin-1-yl)(4-methyl-2-(2H-1,2,3-triazol-2-yl)phenyl)methanone], the Ki at rat orexin 1 receptor stood at 32 nM; at human orexin 1 receptor it was 48 nM; at human orexin 2 receptor (setting [1]) it was 2100 nM.
